Measured values taken from patent US10214502B2, “Method of inhibiting apolipoprotein-E expression while increasing expression of at least one of LDL-receptor protein or AbcA1 protein comprising administering a small compound” (California State University, Fresno, priority 2016, dated 2019).

system: apoE3; test: ELISA of apoE3 levels in conditioned media of compound-treated mouse cortical astrocyte cells; format: cell-based; details: 10 μM compound, 24 hours, normalized to cell protein, relative to DMSO treated cells
Method: ApoE inhibition can be readily determined by any one of several assays and techniques known to those of ordinary skill in the art, including the enzyme-linked immunosorbant assay (ELISA). In the experimental results shown in Table 2 and FIG. 5, the ELISA assay was carried out on cortical astrocyte cells from mice. Astrocyte cells produce apoE, LDLR and AbcA1 proteins.
The experiments involved treating mouse cortical astrocyte cells with the claimed compounds at 10 μM concentration for an incubation time of 24 hrs. DMSO solvent was used as a negative control, because the compounds were dissolved in DMSO when applied to the cells.
The ELISA technique involves immobilizing an apoE-specific capture antibody to a 96-well plate, addition of sample (conditioned medium from mouse cortical astrocyte cells treated with the compound for 24 hours), and detection of the bound apoE using a second apoE-specific biotinylated antibody and streptavidin-HRP.
The Mabtech ELISA kit detects the presence of the three apoE isoforms: apoE2, apoE3, and apoE4.
To obtain the data shown in Table 2 and FIG. 5, the mouse cortical astrocyte cells were maintained in DMEM medium (Invitrogen) supplemented with 10 mM HEPES, 1 mM sodium pyruvate, 4.5 g/L glucose, 1% penicillin/streptomycin, and 10% fetal bovine growth serum (Invitrogen) at 37° C., with 5% CO2.
The cells (6×10^4 cells/24-well plate) were grown for 1 day in RPMI, followed by a 24 hour equilibration in serum-free Opti-MEM (Life Technologies). Treatments were carried out in triplicate with […] of fresh Opti-MEM containing 10 μM of compound or vehicle (0.1% DMSO) for 24 hours. […] ApoE concentration in the sample was calculated based on a standard curve derived using known amounts of purified apoE (from Biodesign).
The protein levels in the cells in the 24-well plates were measured using BCA Protein Assay Kit (from Pierce) and used to normalize the data. […] Sample apoE3 concentrations were represented relative to the DMSO treated cells.
The bars in FIG. 5 reflect the respective mean level apoE3 in the media for each compound with an indication of one […].

| Structure (SMILES) | ApoE3 Levels in Cell Media, Average of Three Tests | ApoE3 Levels in Cell Media, Test 1 | ApoE3 Levels in Cell Media, Test 2 | ApoE3 Levels in Cell Media, Test 3 |
| --- | --- | --- | --- | --- |
| CCN(CC)S(=O)(=O)c1cccc2ccccc12 [Compound 126] | 89.15 % of the DMSO control | 93.7 % of the DMSO control | 89.1 % of the DMSO control | 84.66 % of the DMSO control |
| CC(C)CNS(=O)(=O)c1ccc2ccccc2c1 [Compound 94] | 106.8342 % of the DMSO control | 99.12 % of the DMSO control | 91.64 % of the DMSO control | 129.7451 % of the DMSO control |
| O=C(Nc1ccc(Br)cc1)c1ccc2ccccc2c1 [Compound 101] | 96.05 % of the DMSO control | 93.29 % of the DMSO control | 88.21 % of the DMSO control | 106.6434 % of the DMSO control |
| COc1cccc(NC(=O)c2ccc3ccccc3c2)c1 [Compound 100] | 84.98 % of the DMSO control | 91.06 % of the DMSO control | 75.01 % of the DMSO control | 88.88 % of the DMSO control |
| CCC(C)NS(=O)(=O)c1ccc2ccccc2c1 (centres unmarked) [Compound 93] | 102.6197 % of the DMSO control | 103.3801 % of the DMSO control | 109.2249 % of the DMSO control | 95.25 % of the DMSO control |
| O=C(c1ccc2ccccc2c1)N1CCOCC1 [Compound 90] | 98.59 % of the DMSO control | 90.22 % of the DMSO control | 91.69 % of the DMSO control | 113.8441 % of the DMSO control |
| CC(NS(=O)(=O)c1ccc2ccccc2c1)c1ccccc1 (centres unmarked) [Compound 131] | 85.9 % of the DMSO control | 78.38 % of the DMSO control | 91.41 % of the DMSO control | 87.92 % of the DMSO control |
| O=S(=O)(NC1CCCCC1)c1cccc2ccccc12 [Compound 124] | 95.1 % of the DMSO control | 96.7646 % of the DMSO control | 90.1191 % of the DMSO control | 98.42 % of the DMSO control |
| O=C(c1ccc2ccccc2c1)N1CCCCC1 [Compound 92] | 115.1327 % of the DMSO control | 128.0284 % of the DMSO control | 127.4327 % of the DMSO control | 89.94 % of the DMSO control |
| CC(C)N(C(C)C)S(=O)(=O)c1ccc2ccccc2c1 [Compound 130] | 89.39 % of the DMSO control | 89.06 % of the DMSO control | 79.12 % of the DMSO control | 100.0032 % of the DMSO control |
| O=S(=O)(c1cccc2ccccc12)N1CCCCC1 [Compound 122] | 92.0952 % of the DMSO control | 100.1387 % of the DMSO control | 96.02 % of the DMSO control | 80.1244 % of the DMSO control |
| c1ccc2cc(CN3CCCCC3)ccc2c1 [Compound 141] | 80.31 % of the DMSO control | 80.57 % of the DMSO control | 95.09 % of the DMSO control | 65.29 % of the DMSO control |
| CC(C)CNS(=O)(=O)c1cccc2ccccc12 [Compound 121] | 113.6663 % of the DMSO control | 113.2938 % of the DMSO control | 128.755 % of the DMSO control | 98.9502 % of the DMSO control |
| O=C(c1ccc2ccccc2c1)N1CCCC1 [Compound 91] | 104.6561 % of the DMSO control | 126.8225 % of the DMSO control | 87.2 % of the DMSO control | 99.94 % of the DMSO control |
| COc1ccc(NC(=O)c2ccc3ccccc3c2)cc1 [Compound 99] | 104.5892 % of the DMSO control | 106.2723 % of the DMSO control | 116.3467 % of the DMSO control | 91.15 % of the DMSO control |
| CC(C)CNC(c1ccccc1)(c1ccccc1)c1ccc2ccccc2c1 [Triarylmethyl Amine Compound No. 43, reference compound] | 82.46 % of the DMSO control | 86.35 % of the DMSO control | 74.72 % of the DMSO control | 86.32 % of the DMSO control |
| CCC(C)NS(=O)(=O)c1cccc2ccccc12 (centres unmarked) [Compound 120] | 88.28 % of the DMSO control | 100.2942 % of the DMSO control | 88.31 % of the DMSO control | 76.25 % of the DMSO control |
| O=S(=O)(Nc1ccccc1)c1ccc2ccccc2c1 [Compound 102] | 97.14 % of the DMSO control | 95.99 % of the DMSO control | 98.8 % of the DMSO control | 96.62 % of the DMSO control |
| O=S(=O)(NCc1ccccc1)c1ccc(-c2ccccc2)cc1 [Compound 135] | 99.36 % of the DMSO control | 93.55 % of the DMSO control | 101.8388 % of the DMSO control | 102.6888 % of the DMSO control |

same assay, conditions: 10 μM, 24 hrs, ELISA of media

| Structure (SMILES) | apoE (apoE3) expression compared to the control DMSO, in words |
| --- | --- |
| CC(C)CNC(c1ccccc1)(c1ccccc1)c1ccc2ccccc2c1 [Triarylmethyl Amine Compound No. 43, reference compound] | effectively decrease |
